These results are taken from patent US10807995B2, “Thienothiophene compounds for long-acting injectable compositions and related methods” (priority 2018, dated 2020).

Values joined by “and” are separate entries in the source; they are usually repeats but may differ in a detail not shown here. Identical values can stand only once.

Data set [1] in a line: Whole blood stability assay. As to conditions: prodrug 50 nM in fresh pooled human whole blood, 37 degrees C.; read-out: t1/2 at 37 degrees C. in human whole blood. The data set is classed as in vitro ADME. The method, then: Naltrexone prodrug stability was assessed using freshly collected whole blood (within 24-hr collection) from pooled human (n=3) donors. The incubation mixtures were prepared by spiking the prodrugs into pre-warmed (37 degrees C.) fresh whole blood to a final concentration of 50 nM. After gentle mixing, aliquots of incubation mixtures were immediately transferred into four different 96-deep well plates. One plate was used for each time point. The plates were incubated at 37 degrees C. at a shaking speed of 100 rpm. At time points 15, 30, 60 and 120 minutes, the reaction was quenched by addition of a mixture of water and acetonitrile containing the internal standard (naltrexone-D3). Time point 0 minutes was prepared separately by spiking the prodrugs into a quenched whole blood to obtain a final concentration of 50 nM. All samples were vortexed at a low speed for 15 min and centrifuged at 3900 rpm for 15 min. Supernatants were transferred into 96-well plates for LC-MS/MS analysis to monitor the depletion of the prodrugs and the formation of naltrexone.
The amount of remaining prodrug and released naltrexone for each sample was quantitated against the calibration curves prepared with the whole blood. The human whole blood was purchased from BioreclamationIVT (Westbury, N.Y., USA). Naltrexone-D3 was purchased from Cerilliant® (Round Rock, Tex., USA). […] Where multiple runs have been completed, average values are reported.

Data set [2] is described as follows: Pharmacokinetic evaluation of the release of naltrexone from Compound 3 in rats following a single intramuscular injection. The data set is classed as in vivo, Sprague-Dawley rats. As to conditions: for Compound 3 conc.: plasma of individual rats (Rat 1-6). The method, then:
Six male Sprague-Dawley rats were allowed to acclimate to the test facility for at least 3 days prior to study start. For dose administration of Compound 3, the rats were lightly anesthetized with isofluorane, the hind leg shaved and dosed intramuscularly with the formulation using a 20 G needle. […] Serial whole blood samples were collected via sublingual route (˜150 μL) at 1, 8, and 24 hours post dose, and at 2, 4, 7, 10, 15, 22, 24, 28, 35, 42, 49, 56 and 63 days post dose.
Blood samples were placed into K2EDTA blood collection tubes. After collection, blood samples were maintained chilled (on wet ice) and centrifuged (11,500 rpm for 2 minutes at 5 degrees C.) within 30 minutes to obtain plasma. Plasma was transferred into a single vial, 1.5 mL screw cap micro-centrifuge tube with inserts and stored at −80 degrees C. until analysis.
The formulation dosed was a crystalline suspension of Compound 3 (44.4 milligrams of Compound 3 dosed per animal), wherein the crystalline test article was characterized with a particle size distribution of Dv10=1.6 μm, Dv50=4.1 μm, and Dv90=7.7 μm (as measured via laser diffraction). The formulation was prepared the day before dosing. Details of the formulation dosed are described in Table D below.
Results of the above intramuscular rat study of Compound 3 are shown in Tables E and F. In particular, Table E reports the average blood plasma levels of naltrexone in rat (n=6) over 63 days following intramuscular administration.

The mark [3] stands for this setting: rat plasma over 63 days after single IM Compound 3.

As for `O=C(Cc1cc2sc(CC(=O)Oc3ccc4c5c3O[C@H]3C(=O)CC[C@@]6(O)[C@@H](C4)N(CC4CC4)CC[C@]536)cc2s1)Oc1ccc2c3c1O[C@H]1C(=O)CC[C@@]4(O)[C@@H](C2)N(CC2CC2)CC[C@]314` [Compound 3, bis((4R,4aS,7aR,12bS)-3-(cyclopropylmethyl)-4a-hydroxy-7-oxo-2,3,4,4a,5,6,7,7a-octahydro-1H-4,12-methanobenzofuro[3,2-e]isoquinolin-9-yl) 2,2′-(thieno[3,2-b]thiophene-2,5-diyl)diacetate], the half-life at 50 nM in data set [1] was found to be 6.46 min. Moreover, the “conversion of Compound 3 to naltrexone” value in data set [2] (in rats over 63 days) is “efficient conversion”. For the same compound, the “Compound 3 conc.” value in data set [2] (single IM Compound 3, day 0.042 (1 hr)) is <0.1 ng/mL; in data set [2] (single IM Compound 3, day 0.33 (8 hr)), <0.1 ng/mL; in data set [2] (single IM Compound 3, day 1), <0.1 ng/mL; in data set [2] (single IM Compound 3, day 2), <0.1 ng/mL; in data set [2] (single IM Compound 3, day 4) it was <0.1 ng/mL; in data set [2] (single IM Compound 3, day 7), <0.1 ng/mL (5×) and 0.161 ng/mL. The “Compound 3 conc.” value in data set [2] (single IM Compound 3, day 10) is <0.1 ng/mL; in data set [2] (single IM Compound 3, day 15), <0.1 ng/mL; in data set [2] (single IM Compound 3, day 22), <0.1 ng/mL; in data set [2] (single IM Compound 3, day 24), <0.1 ng/mL; in data set [2] (single IM Compound 3, day 28), <0.1 ng/mL; in data set [2] (single IM Compound 3, day 35), <0.1 ng/mL. In addition, the “Compound 3 conc.” value is <0.1 ng/mL (5×) and 0.128 ng/mL in data set [2] (single IM Compound 3, day 42); 0.134 ng/mL and 0.131 ng/mL and 0.138 ng/mL and <0.1 ng/mL (2×) and 0.143 ng/mL in data set [2] (single IM Compound 3, day 49); 2.02 ng/mL and 0.753 ng/mL and 0.501 ng/mL and 0.281 ng/mL and 0.245 ng/mL and 0.237 ng/mL in data set [2] (single IM Compound 3, day 56); 0.184 ng/mL and 0.229 ng/mL and 0.223 ng/mL and 0.234 ng/mL and 0.255 ng/mL and 0.207 ng/mL in data set [2] (single IM Compound 3, day 63). In data set [2] (setting [3]), the “concentrations of parent Compound 3” value is “generally low to not measurable”.
As for `O=C(Cc1csc2c(CC(=O)Oc3ccc4c5c3O[C@H]3C(=O)CC[C@@]6(O)[C@@H](C4)N(CC4CC4)CC[C@]536)csc12)Oc1ccc2c3c1O[C@H]1C(=O)CC[C@@]4(O)[C@@H](C2)N(CC2CC2)CC[C@]314` [Compound 6, bis((4R,4aS,7aR,12bS)-3-(cyclopropylmethyl)-4a-hydroxy-7-oxo-2,3,4,4a,5,6,7,7a-octahydro-1H-4,12-methanobenzofuro[3,2-e]isoquinolin-9-yl) 2,2′-(thieno[3,2-b]thiophene-3,6-diyl)diacetate], the half-life at 50 nM in data set [1] stood at 11 min.
The same measure, in the same setting: the value for `O=C(Cc1csc2scc(CC(=O)Oc3ccc4c5c3O[C@H]3C(=O)CC[C@@]6(O)[C@@H](C4)N(CC4CC4)CC[C@]536)c12)Oc1ccc2c3c1O[C@H]1C(=O)CC[C@@]4(O)[C@@H](C2)N(CC2CC2)CC[C@]314` [Compound 2, bis((4R,4aS,7aR,12bS)-3-(cyclopropylmethyl)-4a-hydroxy-7-oxo-2,3,4,4a,5,6,7,7a-octahydro-1H-4,12-methanobenzofuro[3,2-e]isoquinolin-9-yl) 2,2′-(thieno[2,3-b]thiophene-3,4-diyl)diacetate] was 15.7 min.
Same read-out and setting: under `Cc1c(CC(=O)Oc2ccc3c4c2O[C@H]2C(=O)CC[C@@]5(O)[C@@H](C3)N(CC3CC3)CC[C@]425)sc2c(C)c(CC(=O)Oc3ccc4c5c3O[C@H]3C(=O)CC[C@@]6(O)[C@@H](C4)N(CC4CC4)CC[C@]536)sc12` [Compound 4, bis((4R,4aS,7aR,12bS)-3-(cyclopropylmethyl)-4a-hydroxy-7-oxo-2,3,4,4a,5,6,7,7a-octahydro-1H-4,12-methanobenzofuro[3,2-e]isoquinolin-9-yl) 2,2′-(3,6-dimethylthieno[3,2-b]thiophene-2,5-diyl)diacetate] stands 20.7 min.
Take `O=C(O)Cc1cc2sc(CC(=O)Oc3ccc4c5c3O[C@H]3C(=O)CC[C@@]6(O)[C@@H](C4)N(CC4CC4)CC[C@]536)cc2s1` [Compound 3i, 2-(5-(2-(((4R,4aS,7aR,12bS)-3-(cyclopropylmethyl)-4a-hydroxy-7-oxo-2,3,4,4a,5,6,7,7a-octahydro-1H-4,12-methanobenzofuro[3,2-e]isoquinolin-9-yl)oxy)-2-oxoethyl)thieno[3,2-b]thiophen-2-yl)acetic acid]: in data set [2] (setting [3]), the “concentrations of the resultant intermediate Compound 3i” value is “generally low to not measurable”. The “Compound 3i conc.” value is <0.2 ng/mL in data set [2] (resultant intermediate in plasma of individual rats (Rat 1-6) after single IM Compound 3, day 2); <0.2 ng/mL in data set [2] (resultant intermediate in plasma of individual rats (Rat 1-6) after single IM Compound 3, day 4); <0.2 ng/mL in data set [2] (resultant intermediate in plasma of individual rats (Rat 1-6) after single IM Compound 3, day 7); <0.2 ng/mL in data set [2] (resultant intermediate in plasma of individual rats (Rat 1-6) after single IM Compound 3, day 10); <0.2 ng/mL in data set [2] (resultant intermediate in plasma of individual rats (Rat 1-6) after single IM Compound 3, day 15); <0.2 ng/mL in data set [2] (resultant intermediate in plasma of individual rats (Rat 1-6) after single IM Compound 3, day 22). The “Compound 3i conc.” value is <0.2 ng/mL in data set [2] (resultant intermediate in plasma of individual rats (Rat 1-6) after single IM Compound 3, day 24); <0.2 ng/mL in data set [2] (resultant intermediate in plasma of individual rats (Rat 1-6) after single IM Compound 3, day 28); <0.2 ng/mL in data set [2] (resultant intermediate in plasma of individual rats (Rat 1-6) after single IM Compound 3, day 35); <0.2 ng/mL (4×) and 0.805 ng/mL and 0.149 ng/mL in data set [2] (resultant intermediate in plasma of individual rats (Rat 1-6) after single IM Compound 3, day 42).
As for `O=C(Oc1ccc2c3c1O[C@H]1C(=O)CC[C@@]4(O)[C@@H](C2)N(CC2CC2)CC[C@]314)c1ccc(C(=O)Oc2ccc3c4c2O[C@H]2C(=O)CC[C@@]5(O)[C@@H](C3)N(CC3CC3)CC[C@]425)cc1` [Reference Compound A, NTX-3-terephthaloyl-NTX, reference compound], the half-life at 50 nM in data set [1] was 54.7 min.
Turning to `O=C(CCc1cc2sc(CCC(=O)Oc3ccc4c5c3O[C@H]3C(=O)CC[C@@]6(O)[C@@H](C4)N(CC4CC4)CC[C@]536)cc2s1)Oc1ccc2c3c1O[C@H]1C(=O)CC[C@@]4(O)[C@@H](C2)N(CC2CC2)CC[C@]314` [Compound 5, bis((4R,4aS,7aR,12bS)-3-(cyclopropylmethyl)-4a-hydroxy-7-oxo-2,3,4,4a,5,6,7,7a-octahydro-1H-4,12-methanobenzofuro[3,2-e]isoquinolin-9-yl) 3,3′-(thieno[3,2-b]thiophene-2,5-diyl)dipropionate], the half-life at 50 nM in data set [1] was determined as 17.1 min.
On the same count and under the same terms, the value for `O=C(Cc1cc2cc(CC(=O)Oc3ccc4c5c3O[C@H]3C(=O)CC[C@@]6(O)[C@@H](C4)N(CC4CC4)CC[C@]536)sc2s1)Oc1ccc2c3c1O[C@H]1C(=O)CC[C@@]4(O)[C@@H](C2)N(CC2CC2)CC[C@]314` [Compound 1, bis((4R,4aS,7aR,12bS)-3-(cyclopropylmethyl)-4a-hydroxy-7-oxo-2,3,4,4a,5,6,7,7a-octahydro-1H-4,12-methanobenzofuro[3,2-e]isoquinolin-9-yl) 2,2′-(thieno[2,3-b]thiophene-2,5-diyl)diacetate] was 11 min.
